{"source": "patent US20260250325A1", "about": "“Antiviral Polypeptide Membrane Fusion Inhibitor, and Preparation Method and Application Thereof” (priority 2025, published 2026)", "key": {"hPIV-N51 (139-189)": {"biological_target": "T1, hPIV-N51 (139-189) (Human parainfluenza 3 virus, UniProt P06828)", "T1 construct": "hPIV-N51 (139-189)", "T1 sequence (P06828 139-189)": "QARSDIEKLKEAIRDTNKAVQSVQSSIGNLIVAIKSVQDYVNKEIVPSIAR", "experiment": "SPR affinity to hPIV-N51 coupled on CM5 chip", "format": "binding"}, "hMPV B1": {"system": "hMPV B1", "format": "cell-based", "conditions": "Vero cells, plaque reduction", "outline": "(§1)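 Plaque reduction in Vero cells (40000/well), 8 concentrations in duplicate; compound pre-mixed with ~200 PFU virus 1 h at 33° C, adsorbed 2 h at 37° C, then overlay with compound, 0.8% CMC, 5 μg/ml trypsin, 0.5% DMSO for 1 day at 33° C. Plaques immunostained (TrueBlue) and counted; EC50 by four-parameter fit.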"}, "hMPV A2": {"system": "hMPV A2", "format": "cell-based", "conditions": "Vero cells, plaque reduction", "outline": "as §1"}, "hMPV-N46 (127-172)": {"biological_target": "T2, hMPV-N46 (127-172) (Human metapneumovirus, UniProt Q6WB98)", "T2 construct": "hMPV-N46 (127-172)", "T2 sequence (Q6WB98 127-172)": "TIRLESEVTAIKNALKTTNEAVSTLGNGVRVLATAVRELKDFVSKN", "experiment": "SPR affinity to hMPV-N46 coupled on CM5 chip", "format": "binding"}}, "note": "Where a SMILES comes first, the peptide text is derived from it. The star is where a group is joined. Succinyl(4-O-cholesteryl) = CC(C)CCC[C@@H](C)[C@H]1CC[C@H]2[C@@H]3CC=C4C[C@@H](OC(=O)CCC(=O)*)CC[C@]4(C)[C@H]3CC[C@]12C"}
{"compound": "CC[C@H](C)[C@H](NC(=O)[C@H](CCCCN)NC(=O)[C@H](CCCCN)NC(=O)[C@H](CC(C)C)NC(=O)[C@H](CO)NC(=O)[C@H](CCC(=O)O)NC(=O)[C@H](CCC(=O)O)NC(=O)[C@@H](NC(=O)[C@H](CCCCN)NC(=O)[C@H](CCCCN)NC(=O)[C@H](CC(N)=O)NC(=O)[C@@H](NC(=O)[C@H](CCC(=O)O)NC(=O)[C@H](CCC(=O)O)NC(=O)[C@@H](NC(=O)[C@H](CCCCN)NC(=O)[C@H](CCCCN)NC(=O)[C@H](CC(=O)O)NC(=O)[C@H](Cc1ccccc1)NC(=O)[C@H](CCC(=O)O)NC(=O)[C@H](CC(=O)O)NC(=O)[C@H](Cc1c[nH]c2ccccc12)NC(C)=O)[C@@H](C)CC)C(C)C)[C@@H](C)CC)C(=O)N[C@@H](CCC(=O)O)C(=O)N[C@@H](CCC(=O)O)C(=O)N[C@@H](CO)C(=O)N[C@@H](CC(=O)O)C(=O)N[C@@H](CCCCN)C(=O)N[C@@H](CCCCN)C(=O)N[C@@H](CC(C)C)C(=O)N[C@@H](CCC(=O)O)C(=O)N[C@@H](C)C(=O)N[C@@H](C)C(=O)N[C@@H](C)C(=O)N[C@@H](CCCCN)C(=O)N[C@@H](CCCCNC(=O)CCC(=O)O[C@H]1CC[C@@]2(C)C(=CC[C@H]3[C@@H]4CC[C@H]([C@H](C)CCCC(C)C)[C@@]4(C)CC[C@@H]32)C1)C(N)=O", "note": "[Compound 13] (Ac-WDEFDKKIEEVNKKIEESLKKIEESDKKLEAAAKK(Succinyl(4-O-cholesteryl))-NH2)", "values": [{"measurement": "Kd", "setting": "hPIV-N51 (139-189)", "value": 2.28, "unit": "µM"}, {"measurement": "EC50", "setting": "hMPV B1", "value": 0.00618, "unit": "µM"}, {"measurement": "EC50", "setting": "hMPV A2", "value": 0.0117, "unit": "µM"}, {"measurement": "Kd", "setting": "hMPV-N46 (127-172)", "value": 3.21, "unit": "µM"}]}
{"compound": "CC[C@H](C)[C@H](NC(=O)[C@H](CO)NC(=O)[C@H](C)NC(=O)[C@H](CC(=O)O)NC(=O)[C@H](Cc1ccccc1)NC(C)=O)C(=O)N[C@@H](CCC(=O)O)C(=O)N[C@@H](CCC(=O)O)C(=O)N[C@H](C(=O)N[C@@H](CC(N)=O)C(=O)N[C@@H](CCCNC(=N)N)C(=O)N[C@@H](CCCNC(=N)N)C(=O)N[C@H](C(=O)N[C@@H](CCC(=O)O)C(=O)N[C@@H](CCC(=O)O)C(=O)N[C@@H](CO)C(=O)N[C@@H](CC(C)C)C(=O)N[C@@H](CCCNC(=N)N)C(=O)N[C@@H](CCCNC(=N)N)C(=O)N[C@H](C(=O)N[C@@H](CCC(=O)O)C(=O)N[C@@H](CCC(=O)O)C(=O)N[C@@H](CO)C(=O)N[C@@H](CC(=O)O)C(=O)N[C@@H](CCCNC(=N)N)C(=O)N[C@@H](CCCNC(=N)N)C(=O)N[C@@H](CC(C)C)C(=O)N[C@@H](CCC(=O)O)C(=O)N[C@@H](CCC(=O)O)C(=O)N[C@H](C(=O)N[C@@H](CC(N)=O)C(=O)N[C@@H](C)C(=O)N[C@@H](CCC(=O)O)C(=O)N[C@@H](C)C(=O)N[C@@H](C)C(=O)N[C@@H](C)C(=O)N[C@@H](CCCCN)C(=O)N[C@@H](CCCCNC(=O)CCC(=O)O[C@H]1CC[C@@]2(C)C(=CC[C@H]3[C@@H]4CC[C@H]([C@H](C)CCCC(C)C)[C@@]4(C)CC[C@@H]32)C1)C(N)=O)C(C)C)[C@@H](C)CC)[C@@H](C)CC)C(C)C", "note": "[Compound 42] (Ac-FDASIEEVNRRIEESLRRIEESDRRLEEVNAEAAAKK(Succinyl(4-O-cholesteryl))-NH2)", "values": [{"measurement": "Kd", "setting": "hPIV-N51 (139-189)", "value": 0.485, "unit": "µM"}, {"measurement": "EC50", "setting": "hMPV B1", "value": 0.0101, "unit": "µM"}, {"measurement": "EC50", "setting": "hMPV A2", "value": 0.0261, "unit": "µM"}, {"measurement": "Kd", "setting": "hMPV-N46 (127-172)", "value": 0.533, "unit": "µM"}]}
{"compound": "Ac-WDEFDASISQVNEKINQSLEEIRKSDELLHNVNALEAAAKK(Succinyl(4-O-cholesteryl))-NH2 [Compound 38]", "values": [{"measurement": "Kd", "setting": "hPIV-N51 (139-189)", "value": 24.5, "unit": "µM"}, {"measurement": "EC50", "setting": "hMPV B1", "value": 0.0166, "unit": "µM"}, {"measurement": "EC50", "setting": "hMPV A2", "value": 0.128, "unit": "µM"}, {"measurement": "Kd", "setting": "hMPV-N46 (127-172)", "value": 0.392, "unit": "µM"}]}
{"compound": "CC[C@H](C)[C@H](NC(=O)[C@H](CO)NC(=O)[C@H](C)NC(=O)[C@H](CC(=O)O)NC(=O)[C@H](Cc1ccccc1)NC(=O)[C@H](CCC(=O)O)NC(=O)[C@H](CC(=O)O)NC(=O)[C@H](Cc1c[nH]c2ccccc12)NC(C)=O)C(=O)N[C@@H](CCC(=O)O)C(=O)N[C@@H](CCC(=O)O)C(=O)N[C@H](C(=O)N[C@@H](CC(N)=O)C(=O)N[C@@H](CCCNC(=N)N)C(=O)N[C@@H](CCCNC(=N)N)C(=O)N[C@H](C(=O)N[C@@H](CCC(=O)O)C(=O)N[C@@H](CCC(=O)O)C(=O)N[C@@H](CO)C(=O)N[C@@H](CC(C)C)C(=O)N[C@@H](CCCNC(=N)N)C(=O)N[C@@H](CCCNC(=N)N)C(=O)N[C@H](C(=O)N[C@@H](CCC(=O)O)C(=O)N[C@@H](CCC(=O)O)C(=O)N[C@@H](CO)C(=O)N[C@@H](CC(=O)O)C(=O)N[C@@H](CCCNC(=N)N)C(=O)N[C@@H](CCCNC(=N)N)C(=O)N[C@@H](CC(C)C)C(=O)N[C@@H](CCC(=O)O)C(=O)N[C@@H](CCC(=O)O)C(=O)N[C@H](C(=O)N[C@@H](CCC(=O)O)C(=O)N[C@@H](C)C(=O)N[C@@H](C)C(=O)N[C@@H](C)C(=O)N[C@@H](CCCCN)C(=O)N[C@@H](CCCCNC(=O)CCC(=O)O[C@H]1CC[C@@]2(C)C(=CC[C@H]3[C@@H]4CC[C@H]([C@H](C)CCCC(C)C)[C@@]4(C)CC[C@@H]32)C1)C(N)=O)C(C)C)[C@@H](C)CC)[C@@H](C)CC)C(C)C", "note": "[Compound 43] (Ac-WDEFDASIEEVNRRIEESLRRIEESDRRLEEVEAAAKK(Succinyl(4-O-cholesteryl))-NH2)", "values": [{"measurement": "Kd", "setting": "hPIV-N51 (139-189)", "value": 5.72, "unit": "µM"}, {"measurement": "EC50", "setting": "hMPV B1", "value": 0.00801, "unit": "µM"}, {"measurement": "EC50", "setting": "hMPV A2", "value": 0.0168, "unit": "µM"}, {"measurement": "Kd", "setting": "hMPV-N46 (127-172)", "value": 71.4, "unit": "µM"}]}
